From patent US7196088B2, “Substituted tetrahydroisoquinolines and uses thereof” (Roche Palo Alto LLC, priority 2003, dated 2007)
pKi: −log10 of the molar value. Structures can show the parent of a compound that is named as a salt.

What was measured:
[1] = target: recombinant human 5-HT6 receptor (Homo sapiens, UniProt P50406); assay: Radioligand binding studies: competition for [3H]LSD binding in membranes of HEK293 cells expressing the receptor
recombinant human 5-HT6 receptor, sequence (P50406 whole entry): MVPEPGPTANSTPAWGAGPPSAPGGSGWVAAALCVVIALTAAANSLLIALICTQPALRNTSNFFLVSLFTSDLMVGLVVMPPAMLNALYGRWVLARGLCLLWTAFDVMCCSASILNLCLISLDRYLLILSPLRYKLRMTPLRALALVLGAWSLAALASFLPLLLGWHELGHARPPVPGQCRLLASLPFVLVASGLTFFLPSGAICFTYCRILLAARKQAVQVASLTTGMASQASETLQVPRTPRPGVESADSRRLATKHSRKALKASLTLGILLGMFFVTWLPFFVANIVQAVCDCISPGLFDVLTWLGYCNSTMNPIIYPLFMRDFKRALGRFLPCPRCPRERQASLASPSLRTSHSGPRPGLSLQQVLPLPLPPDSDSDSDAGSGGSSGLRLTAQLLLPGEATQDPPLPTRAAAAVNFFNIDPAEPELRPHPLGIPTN

| melting point | Structure (SMILES) | pKi [1] |
| --- | --- | --- |
| 214 to 216 °C | O=S(=O)(c1ccccc1)N1CCc2c(cccc2N2CCNCC2)C1 (as salt: trifluoroacetic acid salt) | – |
| – | O=S(=O)(c1cccc(Cl)c1Cl)N1CCc2c(cccc2N2CCNCC2)C1 [Compound 16, 2-(2,3-Dichloro-benzenesulfonyl)-5-pipe-razin-1-yl-1,2,3,4-tetra-hydroisoquinoline] | 10.37 |
